Test results: patent publication US20160324795A1, “SILIBININ NANOPARTICLE AND A METHOD OF TREATING HEPATITIS C THEREOF” (Kaohsiung Medical University, priority 2014, published 2016)

Assays:
[1] = Serum silibinin concentration in SD rats by HPLC; assay type: in vivo, rat
Experimental: (§1) Sprague-Dawley (SD) male rats (6 week-old) purchased from BioLASCO Taiwan Co., Ltd. are used in trials (D) and (E). The SD rats are housed on a 12-hours light and 12-hours dark cycle in an animal room kept at a constant temperature of 25±1° C. and constant humidity of 55±5%. The SD rats are housed for several days before being administered the silibinin nanoparticle of the invention via gastrostomy in a dosage shown in TABLE 3.
After administration for 5, 15, 30, 60, 120, 360, 720, and 1440 minutes, 0.5 mL of blood samples are collected. The blood samples stand at room temperature for coagulation, followed by centrifugation to obtain serum. High-performance liquid chromatography (HPLC) is performed to analyze serum silibinin concentration.

[2] = Solubility in solutions mimicking blood (pH 7.4) and stomach (pH 1.2); assay type: physicochemical; conditions: pH 7.4, after 120 minutes
Description: A solution with pH 7.4 mimics the environment of the blood and a solution with pH 1.2 mimics the environment of the stomach.
That is, compared with the conventional silibinin, the silibinin nanoparticle of the invention has improved blood solubility.

[3] = tested on: Sprague-Dawley (SD) male rats; assay: Safety test in SD rats, administration via gastrostomy for 15 days; conditions: rat, in vivo
Experimental: as §1
With reference to FIG. 6B, after being administered the silibinin nanoparticle of the invention for 15 days, all of the SD rats of groups D0 to D2 show a similar trend of increasing body weights.

[4] = Tissue silibinin concentration in SD rats 24 hours after administration by HPLC; assay type: in vivo, rat
Experimental: as §1
Furthermore, after being administered silibinin or silibinin nanoparticle for 24 hours, the SD rats of groups E1 and E2 are dissected and organs of heart, liver, spleen, lung, and kidney are collected. The collected organs are homogenized by a saline buffer, followed by extraction of silibinin with acetonitrile. The extracted silibinin is analyzed by HPLC.

hepatitis C virus = assay: HCVcc infectivity in Huh-7 cells infected by hepatitis C virus (luminescence); assay type: cell-based
Experimental: Huh-7 cells are infected by hepatitis C virus for 3 hours. After infection, surplus hepatitis C virus are washed, followed by adding a medium with 10% fetal bovine serum (FBS) and the treatment shown in TABLE 5 for 72 hours. The resulting media is collected and the luminescence level is analyzed to evaluate HCVcc infectivity. Specifically, group F2 is treated with dimethyl sulfoxide (DMSO), group F3 is treated with interferon-α (IFN-α), a conventional medication for treating hepatitis C, group F4 is treated with PVP, group F5 is treated with the conventional silibinin dissolved in DMSO, group F6 is treated with the conventional silibinin dissolved in water, and group F7 is treated with the silibinin nanoparticle of the invention dissolved in water.

[5] = 100 mg/kg silibinin (nanoparticle 200 mg/kg with 100 mg of silibinin)

Compound	highest level of serum silibinin concentration [1, 5] [ng/mL]	time to highest level of serum silibinin concentration [1, 5] [min]	concentration at 1440 minutes ([1]; male, Sprague-Dawley, rat, serum, 100 mg/kg body weight/day, 1440 minutes after administration) [ng/mL]	dissolution in solution mimicking the environment of the blood [2]	safe dosage (as silibinin content) [3] [mg/kg body weight per day]	tissue distribution of silibinin (heart, liver, spleen, lung, kidney) [4]	HCVcc infectivity (hepatitis C virus; 72 hours, dissolved in DMSO) [log10 RLU]	HCVcc infectivity (hepatitis C virus; 72 hours treatment) [log10 RLU]
COc1cc(C2Oc3cc(C4Oc5cc(O)cc(O)c5C(=O)C4O)ccc3OC2CO)ccc1O (centres unmarked) [silibinin, 3,5,7-trihydroxy-2-[3-(4-hydroxy-3-methoxyphenyl)-2-(hydroxymethyl)-2,3-dihydro-1,4-benzodioxin-6-yl]-2,3-dihydrochromen-4-one]	170	15	0	cannot dissolve	5	silibinin only exists in the lung	4.9	
IFN-α								4.2
